For assay [1], the system named is FITC-induced contact hypersensitivity. The experiment in a line: FITC-induced contact hypersensitivity in mice (ear swelling, histopathology, ear cytokines). In kind it is in vivo, BALB/c mice. The following applies: Group 3, 1 mg/mL topical; mean ± standard deviation. How it is done: Protocol: Male BALB/c mice at 8 weeks old are used in the study.
All animals, except those in Group 1 (Sham), were sensitized topically (TOP) on the shaved abdominal skin with 200 μL of 0.5% Fluorescein Isothiocyanate (FITC) dissolved in 20% tributyrin in acetone on Days 1 and 2. On Day 7, animals were challenged by applying 20 μL of 0.5% FITC solution onto both sides of the right ear. Animals in Group 1 received nothing.
Vehicle, BisEDT test articles and reference compound (tacrolimus) were administered topically (TOP) once daily (QD) from Day 6 to Day 9 for 4 consecutive days (1 hour before FITC challenge on Day 7). The vehicle for BisEDT was phosphate-buffered saline (PBS).
• 2.5 mg/mL BisEDT topical suspension • 1.25 mg/mL BisEDT topical suspension—prepared as a 1:1 dilution of 2.5 mg/mL BisEDT topical suspension in sterile water and vortexed to ensure homogeneity
Analysis: Ear swelling was measured by an experimenter blinded to treatment group, with a dial thickness micrometer gauge as an index of inflammation 30 min before dosing on Days 7, 8, 9 and 10. On Day 10, ear swelling was measured at 24 hours after the last dosing. Ear edema was calculated by subtracting the thickness of Day 7 (normal control) from Day n (treated ear). Percentage inhibition was calculated according to the formula: (Ic−It)/Ic×100, where Ic and It refer to the increase of ear thickness (mm) both in the control and treated animals. Body weight was recorded daily during the study period.
The animals were sacrificed on Day 10 and the ears were then harvested and weighed. Half of the right ear was fixed in 10% formalin for histopathology, and the other half was processed for cytokine measurement (IL-18, IL-6, and IL-10) using ThermoFisher Mouse ProcartaPlex Kit by Luminex.

Assay [2] relates to lung tissue of M. abscessus infected mice. Kind of assay: Lung histopathology in chronic M. abscessus infection study. The format is in vivo, SCID/Beige mice. The following applies: amikacin-treated (100 mg/kg/day), FIG. 5B. How it is done:
After 28 days of treatment with BisEDT, animals were euthanized by CO2 and secondary cardiac puncture to collect whole blood for quantitation of BisEDT concentration. Lungs and spleens from the CFU mice were homogenized with 1:1 H2O:Dey-Englev neutralizing broth to deactivate BisEDT. CFUs were determined after serial dilution. Mice for histology and the lung pair split, one half in formalin the other half weighed and snap frozen in liquid N2 to determine tissue concentration of BisEDT.
Samples for histology were processed by the Veterinary Diagnostic Laboratory. Slides were stained with hematoxylin-eosin (HE stain) for general pathology as well as a slide for acid-fast stain to highlight the mycobacterial infection in lung tissue.

Another assay relates to Hypo-InflammaSkin models. Kind of assay: Ex vivo human skin model of psoriasis (Hypo-InflammaSkin), cytokine release in culture medium. In kind it is cell-based. The note with it: betamethasone 0.05% topical 25 μL daily Day 0-6. The text has this: Background: InflammaSkin® model is a validated psoriasis-like model developed to reproduce key features of pro-Th17/Th1 inflammation associated with psoriasis. It relies on the in situ activation of resident T-cell of normal skin biopsies and their further polarization into Th17/Th1 phenotype with the supplementation of culture medium with a cocktail of pro-inflammatory cytokines.
Model production and culture: 2 HypoSkin models of 15 mm in diameter (1.76 cm^2) were produced from 1 donor and cultured with 2 mL standard HypoSkin® medium. 20 Hypo-InflammaSkin models were produced from 1 donor by inducing in sit activation and Th17/Th1 polarization of skin resident T cells with proprietary cocktail and cultured with 2 mL Hypo-InflammaSkin® culture medium. The total treatable surface area of the models was 113 mm^2, and dosing of BisEDT took this into account based on dosing of the topical treatment. Models were maintained in standard cell culture conditions for the whole culture duration at 37° C., 5% CO2 and water saturation, with appropriate culture medium renewed every day.
Treatment Groups: Model Treatment: (1) HypoSkin® untreated control; (2) Hypo-InflammaSkin® untreated control; (3) topical betamethasone (positive control); (4) topical BisEDT—2.5 mg/mL (treatment applied every day from day 0 to 6; (5) topical BisEDT—1.25 mg/mL (treatment applied every day from day 3 to 6). N=3 per treatment group, except N=5 for Hypo-InflammaSkin® and N=1 for HypoSkin®.
Topical Treatment—Betamethasone (control): 25 μL of betamethasone was topically applied onto the surface of each skin model. Topical application was performed from Day 0 to Day 6 after removal of the previous treatment residues using a cotton swab.
Topical Treatment—BisEDT: 36 μL of the test compound was topically applied onto the surface of each skin model, massaging across the entire surface area for 1 minute, using a parafilm wrapped cotton swab; the compound was left on the skin. Topical application was performed from Day 0 to Day 6 (Treatment Group 4) or Day 3 to Day 6 (Treatment Group 5). A total of 9 models were topically treated.
Culture Media—culture media was collected on Day 3 prior to treatment application and on Day 7 and frozen at −80° C. A total of 42 culture media samples were collected.
IL-22 release: IL-22 release was measured in culture media using ELISA Human IL-22 Quantikine Kit (Bio-techne, ref D2200). Only samples from control conditions 1 to 3 were analyzed to assess donor's response to T cell activation. Each sample was analyzed in duplicate.
MSD Immunoassay—cytokine release (IL-2, IL-13, IL-15, IL-17A, IL-22, TNF-α, INF-γ, MIP-1β, and […]) in the culture medium was measured using the V-PLEX Plus Human Cytokine Kit (KI5089G, MesoScale Discovery) (FIGS. 13D-13S).

Structures are written as SMILES.

Regarding `C=CC[C@@H]1/C=C(\C)C[C@H](C)C[C@H](OC)[C@H]2O[C@@](O)(C(=O)C(=O)N3CCCC[C@H]3C(=O)O[C@H](/C(C)=C/[C@@H]3CC[C@@H](O)[C@H](OC)C3)[C@H](C)[C@@H](O)CC1=O)[C@H](C)C[C@@H]2OC` [Tacrolimus, tacrolimus], in assay [1], the “Hyperkeratosis (lesion score)” value is 0.88 ± 0.64, the “Hyperplasia (lesion score)” value is 1.63 ± 0.52, the “Inflammation (lesion score)” value was found to be 1.38 ± 0.52 and the “Necrosis (lesion score)” value was 0.13 ± 0.35. Moreover, the Total histological score in assay [1] was 4.00 ± 1.69.

In the case of `NCC[C@H](O)C(=O)N[C@@H]1C[C@H](N)[C@@H](O[C@H]2O[C@H](CN)[C@@H](O)[C@H](O)[C@H]2O)[C@H](O)[C@H]1O[C@H]1O[C@H](CO)[C@@H](O)[C@H](N)[C@H]1O` [amikacin, reference compound], in assay [2], the lung histomorphologic observation result is “infiltration of mononuclear phagocytes, interstitial edema, and interstitial hemorrhage”.

For the compound `C[C@H]1C[C@H]2[C@@H]3CCC4=CC(=O)C=C[C@]4(C)[C@@]3(F)[C@@H](O)C[C@]2(C)[C@@]1(O)C(=O)CO` [betamethasone, reference compound], in the assay on Hypo-InflammaSkin models, the “IL-22 release, average concentration (ELISA)” value was found to be 16.67 µg/mL.

The record behind these values is patent publication US20260174780A1, “BISMUTH-THIOL COMPOSITIONS AND METHODS FOR TREATING INFLAMMATORY DISEASES” (Microbion Corporation, priority 2022, published 2026).
